Measurements reported in the kinase profiling compilation of Christmann-Franck et al. (2016).

What was measured:
Test in all cases: KINOMEscan competition binding
Details in all cases: compound 10.0 µM
ERBB4 (human) = ERBB4 (human) (UniProt Q15303)
PRKG2 (human) = PRKG2 (human) (UniProt Q13237)
MAP3K12 (human) = MAP3K12 (human) (UniProt Q12852)
PIM3 (human) = PIM3 (human) (UniProt Q86V86)
DCLK2 (human) = DCLK2 (human) (UniProt Q8N568)
RET (human) = RET (human) (UniProt P07949)
MAPKAPK5 (human) = MAPKAPK5 (human) (UniProt Q8IW41)
Chain of MAPKAPK5 (human) (Q8IW41 whole entry, looked up): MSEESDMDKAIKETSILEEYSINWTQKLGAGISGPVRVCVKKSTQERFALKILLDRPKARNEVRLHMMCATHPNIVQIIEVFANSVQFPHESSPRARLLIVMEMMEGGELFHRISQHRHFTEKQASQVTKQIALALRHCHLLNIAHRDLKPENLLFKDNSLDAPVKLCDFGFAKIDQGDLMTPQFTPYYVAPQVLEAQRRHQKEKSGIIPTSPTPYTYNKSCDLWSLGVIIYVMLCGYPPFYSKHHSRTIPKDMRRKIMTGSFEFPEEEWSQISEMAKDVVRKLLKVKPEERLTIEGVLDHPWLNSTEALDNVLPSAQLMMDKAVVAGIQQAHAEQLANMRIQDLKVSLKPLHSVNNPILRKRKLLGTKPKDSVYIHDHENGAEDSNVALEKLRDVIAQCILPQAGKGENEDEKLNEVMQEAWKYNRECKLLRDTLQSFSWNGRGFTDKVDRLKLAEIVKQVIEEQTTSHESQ

NEK2 (human) = NEK2 (human) (UniProt P51955)
Chain of NEK2 (human) (P51955 whole entry, looked up): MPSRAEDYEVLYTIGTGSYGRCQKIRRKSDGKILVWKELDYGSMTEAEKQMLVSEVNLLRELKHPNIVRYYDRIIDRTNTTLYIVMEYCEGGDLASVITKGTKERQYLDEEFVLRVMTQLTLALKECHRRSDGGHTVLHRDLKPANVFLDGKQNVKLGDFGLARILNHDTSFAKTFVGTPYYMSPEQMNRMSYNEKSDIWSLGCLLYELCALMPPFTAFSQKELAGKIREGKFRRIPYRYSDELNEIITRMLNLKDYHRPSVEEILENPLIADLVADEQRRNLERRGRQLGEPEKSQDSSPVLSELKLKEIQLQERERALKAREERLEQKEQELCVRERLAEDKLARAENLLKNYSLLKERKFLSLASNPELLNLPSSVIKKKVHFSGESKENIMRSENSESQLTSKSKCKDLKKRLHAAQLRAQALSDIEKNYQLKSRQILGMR

CAMK1D (human) = CAMK1D (human) (UniProt Q8IU85)
NUAK1 (human) = NUAK1 (human) (UniProt O60285)
MYLK4 (human) = MYLK4 (human) (UniProt Q86YV6)
DCLK3 (human) = DCLK3 (human) (UniProt Q9C098)
PHKG1 (human) = PHKG1 (human) (UniProt Q16816)
NTRK2 (human) = NTRK2 (human) (UniProt Q16620)
DAPK1 (human) = DAPK1 (human) (UniProt P53355)
STK10 (human) = STK10 (human) (UniProt O94804)
Chain of STK10 (human) (O94804 whole entry, looked up): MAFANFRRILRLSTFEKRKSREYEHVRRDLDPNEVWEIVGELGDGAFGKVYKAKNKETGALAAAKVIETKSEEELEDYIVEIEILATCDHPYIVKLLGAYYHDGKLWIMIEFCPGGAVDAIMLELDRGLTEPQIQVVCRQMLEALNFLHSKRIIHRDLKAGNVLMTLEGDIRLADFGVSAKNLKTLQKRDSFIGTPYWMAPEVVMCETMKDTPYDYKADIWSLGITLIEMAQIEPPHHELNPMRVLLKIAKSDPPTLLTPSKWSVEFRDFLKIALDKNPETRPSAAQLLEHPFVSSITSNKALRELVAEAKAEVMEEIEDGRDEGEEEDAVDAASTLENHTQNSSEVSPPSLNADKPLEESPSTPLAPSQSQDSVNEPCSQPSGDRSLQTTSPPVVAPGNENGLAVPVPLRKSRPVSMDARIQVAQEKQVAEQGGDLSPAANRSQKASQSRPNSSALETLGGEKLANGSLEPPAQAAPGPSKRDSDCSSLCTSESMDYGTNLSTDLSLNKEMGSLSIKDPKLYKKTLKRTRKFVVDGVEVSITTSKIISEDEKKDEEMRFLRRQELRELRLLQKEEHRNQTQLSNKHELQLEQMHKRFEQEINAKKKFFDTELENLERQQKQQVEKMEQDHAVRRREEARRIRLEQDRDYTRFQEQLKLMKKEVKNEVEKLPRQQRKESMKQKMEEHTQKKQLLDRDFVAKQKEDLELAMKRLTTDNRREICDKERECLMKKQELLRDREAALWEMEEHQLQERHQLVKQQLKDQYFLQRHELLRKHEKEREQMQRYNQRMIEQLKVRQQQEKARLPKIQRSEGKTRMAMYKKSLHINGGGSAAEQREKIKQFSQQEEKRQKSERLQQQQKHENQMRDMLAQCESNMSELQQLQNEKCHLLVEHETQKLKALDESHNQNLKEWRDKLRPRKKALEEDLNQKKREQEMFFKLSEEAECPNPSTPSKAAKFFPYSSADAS

LATS2 (human) = LATS2 (human) (UniProt Q9NRM7)
MAPKAPK2 (human) = MAPKAPK2 (human) (UniProt P49137)
CDK11B (human) = CDK11B (human) (UniProt P21127)
Chain of CDK11B (human) (P21127 whole entry, looked up): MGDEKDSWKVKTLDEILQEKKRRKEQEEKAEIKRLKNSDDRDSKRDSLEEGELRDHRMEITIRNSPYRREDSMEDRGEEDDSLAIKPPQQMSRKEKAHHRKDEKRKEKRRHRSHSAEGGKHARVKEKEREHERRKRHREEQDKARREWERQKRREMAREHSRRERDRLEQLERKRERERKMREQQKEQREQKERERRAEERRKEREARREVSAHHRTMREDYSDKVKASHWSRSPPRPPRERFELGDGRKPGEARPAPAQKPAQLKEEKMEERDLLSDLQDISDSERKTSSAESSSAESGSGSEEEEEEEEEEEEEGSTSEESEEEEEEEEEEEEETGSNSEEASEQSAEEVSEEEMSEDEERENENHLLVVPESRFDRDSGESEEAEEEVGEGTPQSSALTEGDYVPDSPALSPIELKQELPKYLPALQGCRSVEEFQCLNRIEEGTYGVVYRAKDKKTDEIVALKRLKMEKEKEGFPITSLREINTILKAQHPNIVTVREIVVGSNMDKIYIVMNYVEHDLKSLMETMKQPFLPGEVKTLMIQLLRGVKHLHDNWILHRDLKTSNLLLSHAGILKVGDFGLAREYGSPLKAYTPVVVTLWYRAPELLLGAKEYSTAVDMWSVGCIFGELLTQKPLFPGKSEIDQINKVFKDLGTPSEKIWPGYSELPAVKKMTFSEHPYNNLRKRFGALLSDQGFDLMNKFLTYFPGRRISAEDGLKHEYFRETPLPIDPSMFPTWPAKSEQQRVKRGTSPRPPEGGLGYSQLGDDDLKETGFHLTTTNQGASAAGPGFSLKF

RIPK4 (human) = RIPK4 (human) (UniProt P57078)
LYN (human) = LYN (human) (UniProt P07948)
ANKK1 (human) = ANKK1 (human) (UniProt Q8NFD2)
MAPK15 (human) = MAPK15 (human) (UniProt Q8TD08)
ULK3 (human) = ULK3 (human) (UniProt Q6PHR2)
RPS6KA6 KD2 (human) = RPS6KA6 KD2 (human) (UniProt Q9UK32)
CAMK4 (human) = CAMK4 (human) (UniProt Q16566)
FLT1 (human) = FLT1 (human) (UniProt P17948)
TEK (human) = TEK (human) (UniProt Q02763)
RPS6KA5 KD2 (human) = RPS6KA5 KD2 (human) (UniProt O75582)
CAMKK1 (human) = CAMKK1 (human) (UniProt Q8N5S9)
RPS6KA2 KD1 (human) = RPS6KA2 KD1 (human) (UniProt Q15349)
PRKG1 (human) = PRKG1 (human) (UniProt Q13976)
Chain of PRKG1 (human) (Q13976 whole entry, looked up): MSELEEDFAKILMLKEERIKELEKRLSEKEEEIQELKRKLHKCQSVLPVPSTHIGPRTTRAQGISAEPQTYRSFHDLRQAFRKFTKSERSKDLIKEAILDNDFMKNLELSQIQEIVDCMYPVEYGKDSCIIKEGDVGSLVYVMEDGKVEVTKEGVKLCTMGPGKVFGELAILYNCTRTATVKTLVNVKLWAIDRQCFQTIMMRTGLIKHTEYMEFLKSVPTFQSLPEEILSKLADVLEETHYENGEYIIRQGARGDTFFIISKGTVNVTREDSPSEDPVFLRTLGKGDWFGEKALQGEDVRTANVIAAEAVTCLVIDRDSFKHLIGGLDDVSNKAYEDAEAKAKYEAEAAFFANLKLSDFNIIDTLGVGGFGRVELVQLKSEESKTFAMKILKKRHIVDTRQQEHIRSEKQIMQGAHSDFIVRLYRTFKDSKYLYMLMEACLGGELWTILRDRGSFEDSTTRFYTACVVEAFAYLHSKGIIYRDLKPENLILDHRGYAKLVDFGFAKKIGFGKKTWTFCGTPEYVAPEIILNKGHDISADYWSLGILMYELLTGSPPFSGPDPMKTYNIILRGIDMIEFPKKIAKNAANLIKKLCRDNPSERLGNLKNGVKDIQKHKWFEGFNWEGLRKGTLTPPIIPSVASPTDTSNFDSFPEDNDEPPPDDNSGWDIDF

MAP4K2 (human) = MAP4K2 (human) (UniProt Q12851)
EPHA6 (human) = EPHA6 (human) (UniProt Q9UF33)
EPHB2 (human) = EPHB2 (human) (UniProt P29323)
Chain of EPHB2 (human) (P29323 whole entry, looked up): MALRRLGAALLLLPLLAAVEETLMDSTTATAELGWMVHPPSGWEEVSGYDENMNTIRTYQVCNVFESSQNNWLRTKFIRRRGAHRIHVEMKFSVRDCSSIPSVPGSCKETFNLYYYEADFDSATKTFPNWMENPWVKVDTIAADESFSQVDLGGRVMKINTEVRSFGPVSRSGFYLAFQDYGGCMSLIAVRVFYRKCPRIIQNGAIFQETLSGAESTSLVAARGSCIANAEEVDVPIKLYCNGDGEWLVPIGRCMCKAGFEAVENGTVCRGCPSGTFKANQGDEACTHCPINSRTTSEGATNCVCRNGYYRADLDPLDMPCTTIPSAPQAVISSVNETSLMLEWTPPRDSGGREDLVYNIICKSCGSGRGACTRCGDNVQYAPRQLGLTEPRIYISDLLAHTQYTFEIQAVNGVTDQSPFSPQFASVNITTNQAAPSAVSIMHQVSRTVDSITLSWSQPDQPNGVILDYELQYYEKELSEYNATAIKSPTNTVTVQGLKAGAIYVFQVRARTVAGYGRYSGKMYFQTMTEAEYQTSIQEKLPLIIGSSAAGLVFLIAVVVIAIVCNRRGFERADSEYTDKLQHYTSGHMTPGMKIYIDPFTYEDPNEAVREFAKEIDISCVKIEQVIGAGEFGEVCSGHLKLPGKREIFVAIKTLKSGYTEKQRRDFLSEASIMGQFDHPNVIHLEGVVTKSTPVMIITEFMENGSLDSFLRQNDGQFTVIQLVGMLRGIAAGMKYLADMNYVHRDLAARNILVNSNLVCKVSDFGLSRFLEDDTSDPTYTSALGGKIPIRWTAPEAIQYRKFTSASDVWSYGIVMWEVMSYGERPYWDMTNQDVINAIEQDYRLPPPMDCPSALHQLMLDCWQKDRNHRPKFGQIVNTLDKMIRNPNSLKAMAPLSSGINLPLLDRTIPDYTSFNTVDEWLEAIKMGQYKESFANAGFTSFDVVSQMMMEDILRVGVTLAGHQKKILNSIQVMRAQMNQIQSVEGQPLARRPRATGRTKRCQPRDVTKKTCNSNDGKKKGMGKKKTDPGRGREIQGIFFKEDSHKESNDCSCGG

AKT1 (human) = AKT1 (human) (UniProt P31749)
WEE1 (human) = WEE1 (human) (UniProt P30291)
Chain of WEE1 (human) (P30291 whole entry, looked up): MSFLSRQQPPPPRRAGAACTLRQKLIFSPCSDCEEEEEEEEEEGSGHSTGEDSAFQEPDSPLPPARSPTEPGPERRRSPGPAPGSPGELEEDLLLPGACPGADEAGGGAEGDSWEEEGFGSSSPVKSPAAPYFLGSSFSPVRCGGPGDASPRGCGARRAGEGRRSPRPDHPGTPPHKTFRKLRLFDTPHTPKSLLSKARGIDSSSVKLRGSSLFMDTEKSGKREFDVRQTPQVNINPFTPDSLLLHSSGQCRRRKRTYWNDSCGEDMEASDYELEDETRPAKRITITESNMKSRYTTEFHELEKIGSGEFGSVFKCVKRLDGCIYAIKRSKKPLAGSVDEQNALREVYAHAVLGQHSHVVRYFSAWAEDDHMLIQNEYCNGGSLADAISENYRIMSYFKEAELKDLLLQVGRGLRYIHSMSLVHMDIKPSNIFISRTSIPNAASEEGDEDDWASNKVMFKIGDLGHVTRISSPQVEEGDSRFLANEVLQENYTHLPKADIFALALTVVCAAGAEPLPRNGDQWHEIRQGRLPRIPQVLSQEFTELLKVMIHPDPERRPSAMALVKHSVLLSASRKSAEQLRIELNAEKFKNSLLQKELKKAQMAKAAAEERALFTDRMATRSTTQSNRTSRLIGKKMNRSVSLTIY

PRKCE (human) = PRKCE (human) (UniProt Q02156)
ACVRL1 (human) = ACVRL1 (human) (UniProt P37023)

Structure (SMILES) | kinase still bound, per cent of control (ERBB4 (human)) [%] | kinase still bound, per cent of control (PRKG2 (human)) [%] | kinase still bound, per cent of control (MAP3K12 (human)) [%] | kinase still bound, per cent of control (PIM3 (human)) [%] | kinase still bound, per cent of control (DCLK2 (human)) [%] | kinase still bound, per cent of control (RET (human)) [%] | kinase still bound, per cent of control (MAPKAPK5 (human)) [%] | kinase still bound, per cent of control (NEK2 (human)) [%] | kinase still bound, per cent of control (CAMK1D (human)) [%] | kinase still bound, per cent of control (NUAK1 (human)) [%] | kinase still bound, per cent of control (MYLK4 (human)) [%] | kinase still bound, per cent of control (DCLK3 (human)) [%] | kinase still bound, per cent of control (PHKG1 (human)) [%] | kinase still bound, per cent of control (NTRK2 (human)) [%] | kinase still bound, per cent of control (DAPK1 (human)) [%] | kinase still bound, per cent of control (STK10 (human)) [%] | kinase still bound, per cent of control (LATS2 (human)) [%] | kinase still bound, per cent of control (MAPKAPK2 (human)) [%] | kinase still bound, per cent of control (CDK11B (human)) [%] | kinase still bound, per cent of control (RIPK4 (human)) [%] | other results
O=C(O)c1ccc(Nc2ncc3c(n2)-c2ccc(Cl)cc2C(c2c(F)cccc2F)=NC3)cc1 | 52 | 96 | 100 | 42 | 94 | 59 | 100 | 73 | 98 | 67 | 89 | 92 | 100 | 30 | 48 | 6.7 | 72 | 100 | 89 | 100 | kinase still bound, per cent of control (LYN (human)): 25%; kinase still bound, per cent of control (ANKK1 (human)): 100%; kinase still bound, per cent of control (MAPK15 (human)): 90%; kinase still bound, per cent of control (ULK3 (human)): 57%; kinase still bound, per cent of control (RPS6KA6 KD2 (human)): 58%; kinase still bound, per cent of control (CAMK4 (human)): 66%; kinase still bound, per cent of control (FLT1 (human)): 12%; kinase still bound, per cent of control (TEK (human)): 3%; kinase still bound, per cent of control (RPS6KA5 KD2 (human)): 74%; kinase still bound, per cent of control (CAMKK1 (human)): 89%; kinase still bound, per cent of control (RPS6KA2 KD1 (human)): 100%; kinase still bound, per cent of control (PRKG1 (human)): 100%; kinase still bound, per cent of control (MAP4K2 (human)): 88%; kinase still bound, per cent of control (EPHA6 (human)): 14%; kinase still bound, per cent of control (EPHB2 (human)): 50%; kinase still bound, per cent of control (AKT1 (human)): 100%; kinase still bound, per cent of control (WEE1 (human)): 100%; kinase still bound, per cent of control (PRKCE (human)): 72%; kinase still bound, per cent of control (ACVRL1 (human)): 64%
CCC(=O)N1CCN(c2ccc(-n3c(=O)ccc4cnc5ccc(-c6cnc7ccccc7c6)cc5c43)cc2C(F)(F)F)CC1 | 100 | 78 | 100 | 96 | 100 | 44 | 100 | 90 | 88 | 100 | 83 | 97 | 100 | 81 | 96 | 79 | 100 | 100 | 97 | 100 | kinase still bound, per cent of control (LYN (human)): 79%; kinase still bound, per cent of control (ANKK1 (human)): 93%; kinase still bound, per cent of control (MAPK15 (human)): 79%; kinase still bound, per cent of control (ULK3 (human)): 100%; kinase still bound, per cent of control (RPS6KA6 KD2 (human)): 86%; kinase still bound, per cent of control (CAMK4 (human)): 90%; kinase still bound, per cent of control (FLT1 (human)): 79%; kinase still bound, per cent of control (TEK (human)): 19%; kinase still bound, per cent of control (RPS6KA5 KD2 (human)): 100%; kinase still bound, per cent of control (CAMKK1 (human)): 80%; kinase still bound, per cent of control (RPS6KA2 KD1 (human)): 100%; kinase still bound, per cent of control (PRKG1 (human)): 86%; kinase still bound, per cent of control (MAP4K2 (human)): 35%; kinase still bound, per cent of control (EPHA6 (human)): 75%; kinase still bound, per cent of control (EPHB2 (human)): 100%; kinase still bound, per cent of control (AKT1 (human)): 91%; kinase still bound, per cent of control (WEE1 (human)): 42%; kinase still bound, per cent of control (PRKCE (human)): 86%; kinase still bound, per cent of control (ACVRL1 (human)): 83%
